Assay results reported in PubChem BioAssay (NCI).
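The compound was tested at five concentrations on cells cultured in 96-well plates, with a 48-hour exposure period. GI50 is the concentration that inhibits growth by half. TGI: total growth inhibition.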

How the values were obtained:
Experiment in all cases: NCI tumour cell line growth inhibition, 48 h
[1] = system: CCRF-CEM leukemia
[2] = system: HT29 colon
[3] = system: LOX IMVI melanoma
[4] = system: NCI-H23 lung
[5] = system: SK-MEL-28 melanoma
[6] = system: SK-MEL-5 melanoma
[7] = system: SK-OV-3 ovarian
[8] = system: SN12C renal
[9] = system: SNB-75 CNS
[10] = system: UO-31 renal
[11] = system: BT-549 breast

| Structure (SMILES) | TGI [1] [µM] | TGI [2] [µM] | TGI [3] [µM] | TGI [4] [µM] | TGI [5] [µM] | TGI [6] [µM] | TGI [7] [µM] | TGI [8] [µM] | TGI [9] [µM] | TGI [10] [µM] | TGI [11] [µM] | GI50 [11] [µM] | GI50 [2] [µM] | GI50 [4] [µM] | GI50 [7] [µM] | GI50 [8] [µM] | GI50 [9] [µM] |
| --- | --- | --- | --- | --- | --- | --- | --- | --- | --- | --- | --- | --- | --- | --- | --- | --- | --- |
| N=C1C(=N)c2ccccc2-c2ccccc21.[Cl-].[Ru+2].c1ccc(-c2ccccn2)nc1.c1ccc(-c2ccccn2)nc1 | > 100 | > 100 | > 100 | > 100 | > 100 | > 100 | > 100 | > 100 | > 100 | > 100 | – | – | – | – | – | – | – |
| CC(=O)Nc1ccc2c(C)c3c(nc2n1)[nH]c1ccccc13 | > 100 | > 100 | 37.9 | 91.1 | – | 28 | – | > 100 | 69.2 | > 100 | 80.2 | – | – | – | – | – | – |
| Cc1ccc(C)c(NC(=O)C(=O)C(C(=O)c2ccc3ccccc3c2)C2OC(=O)c3ccccc32)c1 (configuration not stated) | 64.9 | > 100 | 35.1 | 54.8 | 34.4 | 31.5 | 48.9 | 39.8 | 58.8 | 31.6 | – | – | – | – | – | – | – |
| C#CCNC(CSSCC(N)C(=O)O)C(=O)O (configuration not stated) | > 100 | > 100 | – | > 100 | > 100 | > 100 | > 100 | – | > 100 | > 100 | – | – | – | – | – | – | – |
| c1ncn(C23C4C5C6C4C2C6C53)n1 (configuration not stated) | > 100 | > 100 | > 100 | > 100 | > 100 | > 100 | > 100 | > 100 | > 100 | – | – | – | – | – | – | – | – |
| COC(=O)[C@H]1C=NN[C@@H]1C(=O)N1[C@H]2CC3CC[C@@]2(CS1(=O)=O)C3(C)C | > 100 | – | > 100 | > 100 | > 100 | > 100 | > 100 | > 100 | – | > 100 | > 100 | – | – | – | – | – | – |
| S=C1c2ccc(Cl)cc2-n2cnnc2C2CSCN12 (configuration not stated) | > 100 | > 100 | > 100 | – | > 100 | > 100 | > 100 | > 100 | > 100 | > 100 | > 100 | – | – | – | – | – | – |
| O=C(Nc1ccccc1)N(C1=NCC(CI)S1)c1ccc(F)c(F)c1 (configuration not stated) | 75.9 | > 100 | 34 | > 100 | 38.4 | 37.2 | > 100 | > 100 | 55.6 | > 100 | – | – | – | – | – | – | – |
| Cc1ccc2nc(SCC(=O)N=Nc3c(O)[nH]c4ccccc34)n(-c3ccccc3)c(=O)c2c1 | 34.5 | 33.5 | 29.8 | 33.1 | 31.2 | 29.1 | 26.7 | 29.1 | – | 12.9 | – | – | – | – | – | – | – |
| CC12CCC(CC(=O)/C1=C(/Br)I)C2(C)C (configuration not stated) | 30.5 | 25 | – | 27.9 | 30.4 | 23.6 | 45.4 | 29.6 | 31 | 32.1 | – | – | – | – | – | – | – |
| COc1ccc(N2C(=O)C3c4[nH]c5ccc(OCc6ccccc6)cc5c4C4CCC(c5ccccc5)CC4C3C2=O)cc1 (configuration not stated) | 26.8 | > 100 | > 100 | 32.4 | – | > 93.7 | 22.6 | > 100 | 27.2 | > 96.9 | 17 | – | – | – | – | – | – |
| O=c1[nH]/c(=C/c2ccc(OCc3ccccc3)cn2)c(=O)[nH]/c1=C/c1ccccc1 | – | > 100 | > 100 | – | > 100 | – | > 100 | – | 0.0706 | > 100 | > 100 | – | – | – | – | – | – |
| N#Cc1c(-c2ccc(Cl)cc2)c2c(nn3c4ccc5ccccc5c4nnc23)[nH]c1=O | > 100 | > 33.5 | 4.18 | 4.56 | 5.28 | 6.27 | 7.99 | 12.2 | – | 12.6 | 2.92 | – | – | – | – | – | – |
| C=CCn1c(=O)c(C)cn(COCCO)c1=O | > 100 | > 100 | > 100 | > 100 | > 100 | > 100 | – | > 100 | > 100 | > 100 | > 100 | – | – | – | – | – | – |
| N#CCCN(CCC#N)c1ccc(/C=C2\N=C(c3ccccc3)N(c3ccc(F)cc3)C2=O)cc1 | – | > 100 | > 100 | – | > 100 | > 100 | > 100 | > 100 | > 100 | > 100 | > 100 | – | – | – | – | – | – |
| c1ccc(-c2csc3c4ccccc4c4ccccc4[n+]23)cc1 | > 38.5 | 20.6 | 16.9 | 11.9 | 7.96 | 2.86 | 38.5 | 11.2 | 6.98 | 31.8 | – | – | – | – | – | – | – |
| C[C@H](c1ccccc1)N1C(=O)[C@@H](O)[C@H]1[C@H](CO)OCc1ccccc1 | > 100 | > 100 | > 100 | > 100 | > 100 | > 100 | > 100 | > 100 | > 100 | > 100 | – | – | – | – | – | – | – |
| C[C@@H]1OC(=O)C[C@H]2CC(=O)N(CCC3CN(C(=O)OCc4ccccc4)c4ccccc43)C[C@@H]21 (some centres not stated) | – | > 100 | – | > 100 | > 100 | > 100 | > 100 | – | > 100 | > 100 | > 100 | – | – | – | – | – | – |
| CC(=O)NC1C(OCc2ccccc2)OC(CO)C(O)C1OCC(=O)N1CCCC1C(=O)N[C@@H](CCC(=O)NCCCCNc1c2ccccc2nc2cccc([N+](=O)[O-])c12)C(N)=O (some centres not stated) | – | 50.2 | – | 40.8 | > 100 | – | > 100 | > 100 | 65.8 | > 100 | 43.7 | – | – | – | – | – | – |
| CN1CCC(CNc2cc(C3(C(=O)Nc4cc(C(=O)Nc5ccc(Cl)c(C(F)(F)F)c5)ccc4F)CC3)ncn2)CC1 | – | 5.09 | – | 4.57 | – | – | 4.58 | 8.92 | 2.86 | – | 9.89 | 3.01 | 1.73 | 1.94 | 2.17 | 2.56 | 0.955 |
| CN(C)CCNc1ccc2c(=O)n(CCN(C)C)c(=O)n3c4ccc(O)cc4c(=O)c1c23 | < 0.01 | 0.229 | 0.217 | 0.186 | 0.863 | 0.211 | 1.04 | – | 0.305 | 0.282 | 2.35 | – | – | – | – | – | – |
